Reference: ChEMBL document CHEMBL5532731, “Structural Modifications of Covalent Cathepsin S Inhibitors: Impact on Affinity, Selectivity, and Permeability” (ACS Med Chem Lett, 2024)
pKi: −log10 of the molar value. The source made the active and inactive calls. The rule behind the calls is not given here. Starred links: 1 amine or outer side, 2 acyl side, 3 side chain; linkers in the order of their positions; H or OH if unused. Non-standard residues stand in square brackets, D forms with d. Residues, ends and D or L forms follow the SMILES beside them. *: point of attachment. Cha = N[C@@H](CC1CCCCC1)C(=O)O; Morpholide = C1CN(*)CCO1; CO = O=C([*:1])[*:2]; Bn = c1ccc(C*)cc1; CH2Cl = ClC*

Legend:
Cathepsin S [1] = target: T1, Cathepsin S (Homo sapiens, UniProt P25774); test: Inhibition of recombinant Cathepsin S (unknown origin) expressed in Escherichia coli using Z-Val-Val-Arg-AMC as substrate by fluorescence based assay
Target sequence in this assay (P25774 whole entry): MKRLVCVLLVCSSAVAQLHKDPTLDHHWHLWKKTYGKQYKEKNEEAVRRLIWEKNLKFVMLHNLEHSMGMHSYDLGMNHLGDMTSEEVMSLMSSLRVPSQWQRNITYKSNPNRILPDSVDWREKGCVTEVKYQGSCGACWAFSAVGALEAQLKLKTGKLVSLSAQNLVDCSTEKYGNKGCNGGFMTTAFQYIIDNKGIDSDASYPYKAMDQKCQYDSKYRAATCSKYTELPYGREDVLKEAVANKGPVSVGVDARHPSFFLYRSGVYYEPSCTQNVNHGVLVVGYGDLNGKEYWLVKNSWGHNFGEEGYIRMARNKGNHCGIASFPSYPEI

Cathepsin B = Cathepsin B (Homo sapiens, UniProt P07858); test: Inhibition of human Cathepsin B using Z-Phe-Arg-AMC as substrate by fluorescence based assay
Procathepsin L = Procathepsin L (Homo sapiens, UniProt P07711); test: Inhibition of human Cathepsin L using Z-Phe-Arg-AMC as substrate by fluorescence based assay
Procathepsin L, sequence (P07711 whole entry): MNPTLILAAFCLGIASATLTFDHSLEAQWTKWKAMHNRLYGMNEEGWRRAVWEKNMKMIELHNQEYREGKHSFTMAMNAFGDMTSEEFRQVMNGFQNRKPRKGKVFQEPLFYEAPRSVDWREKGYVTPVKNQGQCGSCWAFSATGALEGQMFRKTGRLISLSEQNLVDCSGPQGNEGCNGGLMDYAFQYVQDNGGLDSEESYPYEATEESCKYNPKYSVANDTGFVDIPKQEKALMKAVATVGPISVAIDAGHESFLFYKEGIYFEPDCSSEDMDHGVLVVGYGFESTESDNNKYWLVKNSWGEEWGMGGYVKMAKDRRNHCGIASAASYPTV

[2] = Permeability of compound measured after 7 hrs by PAMPA; type: ADME; settings: read-out: permeability
[3] = Stability of compound at pH 4 assessed as compound remaining measured after 24 hrs; type: physicochemical; settings: buffer, pH 4, 24 h
[4] = Stability of compound at pH 7.4 assessed as compound remaining measured after 24 hrs; type: physicochemical; settings: buffer, read-out: Stability
[5] = Stability of compound at pH 4 assessed as compound remaining measured after 2 hrs; type: physicochemical; settings: buffer, pH 4, 2 h
[6] = Selectivity index, ratio of Ki for human Cathepsin B using Z-Phe-Arg-AMC as substrate to Ki for recombinant Cathepsin S (unknown origin) expressed in Escherichia coli using Z-Val-Val-Arg-AMC as substrate
Cathepsin S [7] = target: T1, Cathepsin S; test: Irreversible binding affinity to recombinant Cathepsin S (unknown origin) expressed in Escherichia coli incubated for 60 mins followed by substrate addition by fluorescence based dilution assay
Target sequence in this assay (P25774 115-331 limits assumed): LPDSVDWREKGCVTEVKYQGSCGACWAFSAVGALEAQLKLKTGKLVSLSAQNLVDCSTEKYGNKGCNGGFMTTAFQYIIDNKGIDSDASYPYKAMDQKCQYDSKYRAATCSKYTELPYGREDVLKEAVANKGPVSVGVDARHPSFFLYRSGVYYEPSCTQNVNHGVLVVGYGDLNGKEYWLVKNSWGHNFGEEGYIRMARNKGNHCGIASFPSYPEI

[8] = Oral bioavailability in rat; type: ADME, organism-based; settings: in vivo
Cathepsin S [9] = target: T1, Cathepsin S; test: Binding affinity to recombinant Cathepsin S (unknown origin) expressed in Escherichia coli using Z-Val-Val-Arg-AMC as substrate assessed as Kinact for irreversible binding by fluorescence based assay
Target sequence in this assay (P25774 115-331 limits assumed): as above

Cathepsin S [10] = target: T1, Cathepsin S; test: Binding affinity to recombinant Cathepsin S (unknown origin) expressed in Escherichia coli using Z-Val-Val-Arg-AMC as substrate assessed as second-order rate constant (K) for irreversible binding by fluorescence based assay
Target sequence in this assay (P25774 115-331 limits assumed): as above

Cathepsin S [11] = target: T1, Cathepsin S; test: Binding affinity to recombinant Cathepsin S (unknown origin) expressed in Escherichia coli using Z-Val-Val-Arg-AMC as substrate assessed as inhibition constant for slowly reversible binding by fluorescence based assay
Target sequence in this assay (P25774 whole entry): as the sequence (P25774 whole entry) above

Cathepsin S [12] = target: T1, Cathepsin S; test: Inhibition of Cathepsin S (unknown origin)
Target sequence in this assay (P25774 whole entry): as above

[13] = Selectivity index, ratio of Ki for human Cathepsin L using Z-Phe-Arg-AMC as substrate to Ki for recombinant Cathepsin S (unknown origin) expressed in Escherichia coli using Z-Val-Val-Arg-AMC as substrate

| SMILES | pKi (Cathepsin S [1]) | pKi (Cathepsin B) | pKi (Procathepsin L) | Papp at 7 h [2] [nm/s] | further results |
| --- | --- | --- | --- | --- | --- |
| CS(=O)(=O)C[C@H](N[C@@H](c1ccc(F)cc1)C(F)(F)F)C(=O)N[C@H](C#N)COCc1ccccc1 | 8.62 | 6.80 | 5.71 | – | – |
| N#C[C@H](COCc1ccccc1)NC(=O)[C@H](CC1CCCCC1)NC(=O)C1CCOCC1 | 7.21 | < 4.92 | 5.30 | 41 | – |
| O=C(N/N=C/[C@H](COCc1ccccc1)NC(=O)[C@H](CC1CCCCC1)NC(=O)N1CCOCC1)c1ccccc1 | 8.66 | 6.85 | 7.68 | 1 | Stability [3]: 80%; remaining at 24 h [4]: 50%; Stability [5]: 50% |
| N#C[C@H](CCc1ccccc1)NC(=O)[C@H](CC1CCCCC1)NC(=O)C1CCOCC1 | 6.42 | < 4.92 | 5.20 | 66 | – |
| N#C[C@H](COCc1ccccc1)NC(=O)[C@H](CC1CCCCC1)NC(=O)N1CCOCC1 | – | 5.98 | 6.27 | 47 | – |
| CS(=O)(=O)C[C@H](N[C@@H](c1ccc(F)cc1)C(F)(F)F)C(=O)NC1(C#N)CC1 | 9.00 | 5.78 | 5.15 | – | Ratio Ki [6]: 1670; Activity (Cathepsin S [7]): inactive |
| O=C(CO)[C@H](COCc1ccccc1)NC(=O)[C@H](CC1CCCCC1)NC(=O)N1CCOCC1 | 7.17 | < 5.59 | < 6.22 | – | Activity (Cathepsin S [7]): inactive |
| N#C[C@H](COCc1ccccc1)NC(=O)[C@H](CC1CCCCC1)NC(=O)c1ccncc1 | – | 5.72 | 5.99 | 20 | – |
| CNC(=O)O[C@H]1COc2ccc(N3CCN(C4COC4)CC3)cc2[C@@H]1NC(=O)c1ccc(F)cc1 | – | – | – | – | bioavailability [8]: 92% |
| CS(=O)(=O)C[C@H](N[C@@H](c1ccc([N+](=O)[O-])cc1)C(F)(F)F)C(=O)NC1(C#N)CC1 | 8.11 | < 4.92 | < 5.00 | – | Ratio Ki [6]: > 1500 |
| O=C(CCl)[C@H](COCc1ccccc1)NC(=O)[C@H](CC1CCCCC1)NC(=O)N1CCOCC1 ({Morpholide-CO}-[Cha]-Ser(Bn)-CH2Cl) | 9.30 | – | – | – | Kinact (Cathepsin S [9]): 0.002 s⁻¹; K (Cathepsin S [10]): 4.3 10^6/M/s |
| O=C(SCC(=O)[C@H](COCc1ccccc1)NC(=O)[C@H](CC1CCCCC1)NC(=O)N1CCOCC1)c1ccccc1 | 6.78 | < 8.00 | < 5.52 | – | Activity (Cathepsin S [7]): inactive |
| C=CS(=O)(=O)C(=O)[C@H](COCc1ccccc1)NC(=O)[C@H](CC1CCCCC1)NC(=O)N1CCOCC1 | 8.52 | – | – | – | Kinact (Cathepsin S [9]): 0.02 s⁻¹; K (Cathepsin S [10]): 7.2 10^6/M/s; Activity (Cathepsin S [7]): Active |
| N#C[C@H](CCc1ccccc1)NC(=O)[C@H](CC1CCCCC1)NC(=O)c1ccncc1 | 7.89 | 5.78 | 5.83 | 25 | – |
| O=C(CS(=O)(=O)c1ccccc1)[C@H](COCc1ccccc1)NC(=O)[C@H](CC1CCCCC1)NC(=O)N1CCOCC1 | 6.48 | < 6.29 | < 6.22 | 8 | pKi (Cathepsin S [11]): 7.37; Activity (Cathepsin S [7]): inactive |
| CS(=O)(=O)C[C@H](N[C@@H](c1ccc([N+](=O)[O-])cc1)C(F)(F)F)C(=O)N[C@H](C#N)COCc1ccccc1 | 7.89 | 7.09 | < 5.00 | 7 | – |
| N#C[C@H](COCc1ccccc1)NC(=O)[C@H](CC1CCCCC1)N[C@@H](c1ccc(F)cc1)C(F)(F)F | 7.96 | < 4.92 | < 5.00 | – | – |
| CN1CCN(C(=O)N[C@@H](Cc2ccccc2)C(=O)N[C@H](/C=C/S(=O)(=O)c2ccccc2)CCc2ccccc2)CC1 [K-777] | – | – | – | – | pKi (Cathepsin S [12]): 7.89 |
| N#CC1(NC(=O)[C@H](CC2CCCCC2)NC(=O)N2CCOCC2)CC1 | 8.82 | < 4.92 | 6.41 | – | – |
| CS(=O)(=O)C[C@H](N[C@@H](c1ccc([N+](=O)[O-])cc1)C(F)(F)F)C(=O)N[C@H](C#N)CCc1ccccc1 | 8.44 | 7.44 | < 5.00 | – | Ratio Ki [13]: > 2780 |
| N#CC1(NC(=O)[C@H](CC2CCCCC2)NC(=O)C2CCOCC2)CC1 | 6.93 | < 4.92 | 5.78 | 1 | – |
| O=C[C@H](COCc1ccccc1)NC(=O)[C@H](CC1CCCCC1)NC(=O)N1CCOCC1 ({Morpholide-CO}-[Cha]-Ser(Bn)-aldehyde) | 10.41 | 7.19 | 7.77 | 45 | pKi (Cathepsin S [11]): 10.80; Ratio Ki [6]: > 1600; Ratio Ki [13]: > 435 |
| N#C[C@H](CCc1ccccc1)NC(=O)[C@H](CC1CCCCC1)N[C@@H](c1ccc(F)cc1)C(F)(F)F | 6.84 | < 4.92 | < 5.00 | – | – |
| N#C[C@H](CCc1ccccc1)NC(=O)[C@H](CC1CCCCC1)NC(=O)N1CCOCC1 | – | 5.11 | 5.60 | 60 | – |
| N#CC1(NC(=O)[C@H](CC2CCCCC2)NC(=O)c2ccncc2)CC1 | 7.89 | < 4.92 | 6.15 | – | – |
| N#CC1(NC(=O)[C@H](CC2CCCCC2)N[C@@H](c2ccc(F)cc2)C(F)(F)F)CC1 | 7.70 | < 4.92 | 5.82 | 49 | – |
| O=C(N/N=C(\CS(=O)(=O)c1ccccc1)[C@H](COCc1ccccc1)NC(=O)[C@H](CC1CCCCC1)NC(=O)N1CCOCC1)c1ccccc1 | 6.00 | < 7.92 | < 5.60 | – | Stability [3]: 13% |
| O=C(OCC(=O)[C@H](COCc1ccccc1)NC(=O)[C@H](CC1CCCCC1)NC(=O)N1CCOCC1)c1ccccc1 | 7.60 | < 5.59 | < 6.22 | – | Activity (Cathepsin S [7]): Active |
